In patent US20250388574A1, “HETEROCYCLIC COMPOUNDS AS TRIGGERING RECEPTOR EXPRESSED ON MYELOID CELLS 2 AGONISTS AND METHODS OF USE” (AMGEN INC., priority 2020, published 2025):

Target: hTREM2 (Homo sapiens, UniProt Q9NZC2)
Experiment: Phospho-Syk AlphaScreen/AlphaLISA assay in TREM2 and DAP12 overexpressing HEK293 cells (Example A1)
Format: cell-based
Design: expressed in transfected cells
Settings: HEK293 cells; for EC50: read-out: hTREM2 EC50
Procedure: Pharmacological measurements of TREM2 signaling through DAP12 were made with TREM2 and DAP12 overexpressing HEK293 cells stable cell lines that had been single-cell cloned (“TREM2/DAP12-HEK”). The readout of the TREM2 signaling utilized Perkin Elmer AlphaScreen/AlphaLISA technology monitoring the phosphorylation levels of the Syk kinase. TREM2/DAP12-HEK cell lines were cultured in DMEM-F12 (Corning 10-092-CM) supplemented with 1× Penicillin/Streptomycin (Corning 30-002-CI), 1× GlutaMAX (Gibco 35050-061), and 10% Fetal Bovine Serum (Life Technologies 10099) referred to as “HEK Culture Medium”. Suspensions of TREM2/DAP12-HEK cells were prepared in HEK Culture Medium and dispensed into 384-well poly-D-lysine coated microplates (Corning 354661) at a density of 20,000 cells/well using a Multidrop Combi peristaltic microplate dispenser (Thermo), 25 uL volume of cell suspension/well. Plates containing cells were then incubated for 20 hours in a humidified cell culture incubator at 37° C. with 5% CO2 (Thermo). […] Assay Buffer contained diluted test articles (in 1% final DMSO concentration for compounds) or 100 nM anti-human/mouse TREM2 antibody (R&D Systems MAB17291) as a positive control, 100 nM or rat IgG2B isotype Ab as a negative control (R&D Systems MAB0061). Incubated the plates with test articles and controls for 45 minutes at room temperature and then aspirated/removed the medium from each well of the plates. Used a Multidrop Combi peristaltic liquid handler (Thermo) to dispense 15 uL/well of “Cell Lysis Immunoassay Buffer”. The Cell Lysis Immunoassay Buffer contained M-PER Mammalian Protein Extraction Reagent (Pierce/ThermoFisher 78505), 1× Halt Phosphatase Inhibitor Cocktail (ThermoFisher #78427), 0.1875 nM anti-phospho-Syk ([…]/526) ([…]) rabbit mAb (Cell Signaling Technologies catalog #2710), and 1.5 nM biotinylated Mouse anti-human Syk (4D10) antibody (BD Biosciences, catalog #624008). Incubated plates for 1 hour at room temperature after the addition of the Cell Lysis Immunoassay Buffer. Used the Multidrop Combi liquid handler to dispense 15 μL of AlphaScreen Acceptor Bead Solution containing 7.5 μg/mL anti-rabbit IgG (Fc specific) AlphaLISA Acceptor Beads (Perkin Elmer A[…]) in 1× Immunoassay buffer (Perkin Elmer A[…]) to each well of the microplates. Incubated plates for 2 hours at room temperature. Following the incubation with the AlphaLISA Acceptor Bead Solution, used a Multidrop Combi liquid handler (Thermo) to dispense 15 μL of AlphaScreen Donor Bead Solution containing 30 μg/mL of AlphaScreen Streptavidin Donor beads (Perkin Elmer 6760002B) in 1× Immunoassay buffer (Perkin Elmer A[…]) to each well of the microplates. Incubated microplates for 2 hours protected from light sources as the AlphaScreen reagents are light sensitive. Once the final incubation was completed, acquired AlphaScreen signal from the donor and acceptor beads using an Envision high throughput multi-modal microplate reader (Perkin Elmer) calibrated to the plate type with the AlphaScreen mirror and filter-set in 384-well mode, 680 nanometer excitation wavelength. The total measurement time per well was 550 milliseconds with a 180 millisecond excitation time. After reading the AlphaScreen signal for each well of the microplates, on a plate-by-plate basis, each raw test article well value (x) was normalized to a Percent of Control (“POC”) value using the following formula: […] Each plate contained 12 of each type of control wells that were used to generate the mean values. For concentration response curve analysis with test articles tested at various concentrations, the % of activation values were analyzed with 4 Parameter Logistic or Sigmoidal Dose-Response Models using GeneData Screener (GeneData, AG) or GraphPad Prism 7 (Graphpad Software, Inc.). […] This assay may be used to test any of the compounds described herein to assess and characterize a compound's ability to act as an agonist of TREM2.

Sequence of hTREM2 (Q9NZC2 19-230): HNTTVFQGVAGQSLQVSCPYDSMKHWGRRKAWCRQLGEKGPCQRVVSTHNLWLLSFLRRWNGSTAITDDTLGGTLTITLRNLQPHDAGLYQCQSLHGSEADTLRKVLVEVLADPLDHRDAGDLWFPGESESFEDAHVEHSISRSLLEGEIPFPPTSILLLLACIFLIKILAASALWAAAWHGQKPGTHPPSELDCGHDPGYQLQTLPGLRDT
Sequence of hTREM2 (O43914 22-113 partner): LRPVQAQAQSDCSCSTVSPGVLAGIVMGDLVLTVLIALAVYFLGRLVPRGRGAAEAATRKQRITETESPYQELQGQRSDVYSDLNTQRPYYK

In the case of `Cc1nc2cc(N3CCO[C@@H](c4ccc(Cl)cc4)C3)nc(-c3ccc(Cl)cc3F)c2c(=O)n1C` (single isomer, unassigned) [Example 87], the Emax is reported as “++++ (Emax>300)” and the EC50 is reported as 0.5 to 3 µM.

In the case of `Cc1nn(C)cc1C1CN(c2cc3nc(C)n(C)c(=O)c3c(-c3ccc(Cl)cc3F)n2)CCO1` (centres unmarked) [Example 68, 5-(4-chloro-2-fluorophenyl)-7-(2-(1,3-dimethyl-1H-pyrazol-4-yl)-4-morpholinyl)-2,3-dimethylpyrido[4,3-d]pyrimidin-4(3H)-one], the Emax is reported as “+++ (Emax>200 and ≤300)” and the EC50 is reported as 0.05 to 0.5 µM.

For `Cc1nc2cc(N3CCC(F)(F)[C@H](N(C)C)C3)nc(-c3ccc(Cl)cc3F)c2c(=O)n1C` [Example 250, (R)-5-(4-chloro-2-fluorophenyl)-7-(3-(dimethylamino)-4,4-difluoropiperidin-1-yl)-2,3-dimethylpyrido[4,3-d]pyrimidin-4(3H)-one], the Emax was “++++ (Emax>300)” and the EC50 was 3 to 100 µM.

For `Cc1nnc([C@H]2CN(c3cc4nc(C)n(C)c(=O)c4c(-c4ccc(Cl)cc4F)n3)CCO2)o1` (single isomer, unassigned) [Example 59], the Emax was “+++ (Emax>200 and ≤300)” and the EC50 was 0.05 to 0.5 µM.

With `Cc1nc2cc(N3CCOC(CC(F)(F)F)C3)nc(-c3ccc(Cl)cc3F)c2c(=O)n1C` (centres unmarked) [Example 53, 5-(4-chloro-2-fluorophenyl)-2,3-dimethyl-7-(2-(2,2,2-trifluoroethyl)-4-morpholinyl)pyrido[4,3-d]pyrimidin-4(3H)-one] the Emax was “++++ (Emax>300)” and the EC50 was 0.5 to 3 µM.

For `Cc1nc2cc(N3CCO[C@@H](c4cccc(OC(F)(F)F)c4)C3)nc(-c3ccc(Cl)cc3F)c2c(=O)n1C` (single isomer, unassigned) [Example 98], the Emax was “+++ (Emax>200 and ≤300)” and the EC50 was 3 to 100 µM.

For `Cc1nc2cc(N3CCO[C@H](c4ccnc(C(F)(F)F)c4)C3)nc(-c3ccc(Cl)cc3F)c2c(=O)n1C` [Example 265, (R)-5-(4-chloro-2-fluorophenyl)-2,3-dimethyl-7-(2-(2-(trifluoromethyl)pyridin-4-yl)morpholino)pyrido[4,3-d]pyrimidin-4(3H)-one], the Emax was “+++ (Emax>200 and ≤300)” and the EC50 was 0.5 to 3 µM.

`Cc1nc2cc(N3C[C@@H](c4cnn(C)c4)OC[C@H]3C)nc(-c3ccc(Cl)cc3F)c2c(=O)n1C` (single isomer, unassigned) [Example 26] was tested, and the Emax was “+++ (Emax>200 and ≤300)” and the EC50 was 0.5 to 3 µM.

For `Cc1nc2cc(N3CCO[C@@H](c4cnn(C)c4)C3)nc(-c3cc(F)ccc3F)c2c(=O)n1C` [Example 228, (S)-5-(2,5-difluorophenyl)-2,3-dimethyl-7-(2-(1-methyl-1H-pyrazol-4-yl)morpholino)pyrido[4,3-d]pyrimidin-4(3H)-one], the Emax was “+++ (Emax>200 and ≤300)” and the EC50 was 0.5 to 3 µM.

With `Cc1cnn([C@H]2CCN(c3cc4nc(C)n(C)c(=O)c4c(-c4ccc(Cl)cc4F)n3)C2)c1` [Example 204, (S)-5-(4-chloro-2-fluorophenyl)-2,3-dimethyl-7-(3-(4-methyl-1H-pyrazol-1-yl)pyrrolidin-1-yl)pyrido[4,3-d]pyrimidin-4(3H)-one] the Emax was “+ (Emax>45 and ≤100)” and the EC50 was 3 to 100 µM.

For `Cc1cn2c(n1)CN(c1cc3nc(C)n(C)c(=O)c3c(-c3ccc(Cl)cc3F)n1)CC2` [Example 234, 5-(4-chloro-2-fluorophenyl)-2,3-dimethyl-7-(2-methyl-5,6-dihydroimidazo[1,2-a]pyrazin-7(8H)-yl)pyrido[4,3-d]pyrimidin-4(3H)-one], the Emax was “++ (Emax>100 and ≤200)” and the EC50 was 3 to 100 µM.

For `Cc1nc2cc(N3CCO[C@@H](c4ccnc(OCC(F)(F)F)c4)C3)nc(-c3ccc(Cl)cc3F)c2c(=O)n1C` (single isomer, unassigned) [Example 96], the Emax was “++++ (Emax>300)” and the EC50 was 0.5 to 3 µM.

`Cc1nc2cc(N3CCC(F)(F)[C@H](N4CCC4)C3)nc(-c3ccc(Cl)cc3F)c2c(=O)n1C` [Example 249, (R)-7-(3-(azetidin-1-yl)-4,4-difluoropiperidin-1-yl)-5-(4-chloro-2-fluorophenyl)-2,3-dimethylpyrido[4,3-d]pyrimidin-4(3H)-one] was tested, and the Emax was “++++ (Emax>300)” and the EC50 was 0.5 to 3 µM.
